Source: EP4599817A1, “IMPACT ON ENAMEL AND DENTINE […] THROUGH MEDIATED IMPACT OF ANTAGONISTS ON TRPV1 AND TRCP5 […] IN ORAL CARE PRODUCTS” (SkyLab AG, priority 2024, dated 2025)
“And” between values parts separate entries of the source, which are not always exact repeats. Equal values may be shown once.

What was measured:
[1] = target: TRPV1 (Homo sapiens, UniProt Q8NER1); conditions: clinical trial after third molar extraction; trial terminated; cited from earlier work
[2] = system: hypersensitive teeth; experiment: Randomized controlled study of dentine hypersensitivity: visual analogue scale (VAS) score with hot applicator and ice cube, before and after first mouthwash application; assay type: in vivo, patients; design: key to Before Ice / Before Hot: VAS score, 0 = no pain to 10 = severe pain (10 cm line); conditions: for Hot After 1 use Mean / Ice After 1 use Mean / Before Hot Mean / Before Ice Mean / Hot After 1 use / Ice After 1 use: VAS 0-10; for Hot After 1 use Mean / Ice After 1 use Mean / Before Hot Mean / Before Ice Mean: group mean of 6 subjects; for Hot After 1 use Mean / Ice After 1 use Mean: after first application of mouthwash; for Hot After 1 use Mean / Before Hot Mean / Hot After 1 use / Before Hot / Modifications in HS after the product application, Hot After 1 use, %: applicator heated to 90C; for Ice After 1 use Mean / Before Ice Mean / Ice After 1 use / Before Ice / Modifications in HS after the product application, Ice After 1 use, %: ice cube; for Before Hot Mean / Before Ice Mean / Before Hot / Before Ice: baseline before mouthwash; for Hot After 1 use / Ice After 1 use / Before Hot / Before Ice: individual subjects 1-6; for Hot After 1 use / Ice After 1 use: after first application of mouthwash (potassium nitrate 5%, galangin 0,1%, adenosine 0,05%, oleic acid 0,1% or combination); for Before Hot / Before Ice: VAS 0 - no pain, 10 - severe pain; for Modifications in HS after the product application, Hot After 1 use, % / Modifications in HS after the product application, Ice After 1 use, %: decrease of mean VAS versus before, mouthwash, first application
Excerpt: Table 2. Schedule of enrollment, intervention and assessment of the study
• Age from 18 to 35 years old • Good overall health; • At least one DHS tooth with sensitivity over or equal to 4 (VAS). Withdrawal criteria • Active caries or defective restorations on the tested tooth; • Considerable loss of dentine, requiring remedial treatment or paradental surgery; • Presence of veneers; • Any professional desensitizing treatment during previous 6 months; • Use of desensitizing toothpaste during previous 3 months. • Use of anti-inflammatory medicine or painkillers during enrollment; • Currently pregnant of breast-feeding.
The subjects were randomized into 6 treatment groups, two control groups of which were negative and positive controls (Fig. 3).
For random distribution of subjects, randomization was made as a draw with the website www.randomizer.org. An average value of initial points according to DHS degree was determined for each subject, and the subjects were randomized into treatment groups providing the equivalent initial DHS points for various treatment modes. All the hypersensitive teeth in each subject were estimated with the use of DHS; an average value was considered for the baseline. All the hypersensitive teeth were subjected and re-estimated. Next, and average value was calculated for the final estimation of sensitivity.
These products were used by them till the end of the study. An oral care set included soft toothbrush and toothpaste for general oral care.
The treatment groups received mouthwashes with the following systems; Table 3. Basic formulation of mouthwash to include the system: […]
The primary result expected in the study was the decrease of dental hypersensitivity after the first application of the product. The result of the system application was calculated with a visual analogue scale, which registers sensitivity with a 10 cm line. The line extremums are the pain limits, which the subject can feel from external irritant (0 - no pain; 10 - severe pain). First, dental sensitivity was registered with an ice cube and an applicator heated to 90C. After the first application, sensitivity to external irritant was registered with an ice cube and an applicator heated to 90C.
The tested sample size was 36 subjects. The data was collected and then filtered out from errors and processed with the standard functionality of MS Excel. The charts were made with Microsoft Excel software. Table 5. Results of hypersensitivity assessment study

[3] = pure galangin; cited from earlier work
[4] = oral administration; due to intensive metabolism; cited from earlier work
[5] = target: T1, CYP1A1 (Homo sapiens, UniProt P04798); conditions: with various proteins, such as CYP1A1; transformation into kaempferol; cited from earlier work
T1 sequence (P04798 1-512): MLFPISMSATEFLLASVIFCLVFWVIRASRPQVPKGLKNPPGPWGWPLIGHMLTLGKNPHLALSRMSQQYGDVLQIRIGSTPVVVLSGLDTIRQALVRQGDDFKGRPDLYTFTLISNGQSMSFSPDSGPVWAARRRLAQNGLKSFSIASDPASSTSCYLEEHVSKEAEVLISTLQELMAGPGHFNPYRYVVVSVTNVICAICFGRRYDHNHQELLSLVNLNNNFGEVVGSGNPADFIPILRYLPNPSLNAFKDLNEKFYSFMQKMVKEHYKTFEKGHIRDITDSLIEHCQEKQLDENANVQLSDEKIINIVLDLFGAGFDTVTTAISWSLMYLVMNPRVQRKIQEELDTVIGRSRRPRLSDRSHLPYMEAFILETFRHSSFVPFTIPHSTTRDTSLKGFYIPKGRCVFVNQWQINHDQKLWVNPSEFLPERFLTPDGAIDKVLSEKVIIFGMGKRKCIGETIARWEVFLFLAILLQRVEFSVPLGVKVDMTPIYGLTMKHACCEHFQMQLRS

[6] = system: TRPC5; conditions: animal model, cited from earlier work
[7] = target: T2, TRPC5 receptors (Homo sapiens, UniProt Q9UL62); conditions: compared with galangin; cited from earlier work
T2 sequence (Q9UL62 1-973): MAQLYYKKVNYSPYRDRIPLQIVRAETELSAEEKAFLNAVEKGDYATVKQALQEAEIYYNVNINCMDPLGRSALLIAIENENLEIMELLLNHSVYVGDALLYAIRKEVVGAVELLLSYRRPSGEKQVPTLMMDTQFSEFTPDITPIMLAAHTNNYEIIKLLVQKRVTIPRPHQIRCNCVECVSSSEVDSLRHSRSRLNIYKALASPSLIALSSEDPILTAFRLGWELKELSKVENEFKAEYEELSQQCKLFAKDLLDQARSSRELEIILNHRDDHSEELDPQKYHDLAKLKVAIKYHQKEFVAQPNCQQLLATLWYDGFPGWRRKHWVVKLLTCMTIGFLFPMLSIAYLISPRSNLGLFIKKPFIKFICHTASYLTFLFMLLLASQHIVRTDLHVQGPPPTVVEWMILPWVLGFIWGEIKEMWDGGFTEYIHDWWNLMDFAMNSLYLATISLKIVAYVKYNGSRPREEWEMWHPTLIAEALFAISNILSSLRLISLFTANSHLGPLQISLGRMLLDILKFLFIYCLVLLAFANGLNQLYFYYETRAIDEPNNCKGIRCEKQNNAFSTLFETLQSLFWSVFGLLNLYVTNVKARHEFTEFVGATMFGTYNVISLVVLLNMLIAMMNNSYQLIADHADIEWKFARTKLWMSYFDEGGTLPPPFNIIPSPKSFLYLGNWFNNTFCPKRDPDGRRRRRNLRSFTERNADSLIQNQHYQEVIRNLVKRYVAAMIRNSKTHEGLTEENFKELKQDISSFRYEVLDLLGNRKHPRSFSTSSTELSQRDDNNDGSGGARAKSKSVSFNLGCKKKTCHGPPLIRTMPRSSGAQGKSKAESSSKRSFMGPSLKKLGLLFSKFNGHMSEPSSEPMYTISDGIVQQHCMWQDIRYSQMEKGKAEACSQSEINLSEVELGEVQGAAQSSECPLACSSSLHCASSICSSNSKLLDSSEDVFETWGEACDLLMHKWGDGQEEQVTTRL

Sequence of TRPV1 (Q8NER1 whole entry): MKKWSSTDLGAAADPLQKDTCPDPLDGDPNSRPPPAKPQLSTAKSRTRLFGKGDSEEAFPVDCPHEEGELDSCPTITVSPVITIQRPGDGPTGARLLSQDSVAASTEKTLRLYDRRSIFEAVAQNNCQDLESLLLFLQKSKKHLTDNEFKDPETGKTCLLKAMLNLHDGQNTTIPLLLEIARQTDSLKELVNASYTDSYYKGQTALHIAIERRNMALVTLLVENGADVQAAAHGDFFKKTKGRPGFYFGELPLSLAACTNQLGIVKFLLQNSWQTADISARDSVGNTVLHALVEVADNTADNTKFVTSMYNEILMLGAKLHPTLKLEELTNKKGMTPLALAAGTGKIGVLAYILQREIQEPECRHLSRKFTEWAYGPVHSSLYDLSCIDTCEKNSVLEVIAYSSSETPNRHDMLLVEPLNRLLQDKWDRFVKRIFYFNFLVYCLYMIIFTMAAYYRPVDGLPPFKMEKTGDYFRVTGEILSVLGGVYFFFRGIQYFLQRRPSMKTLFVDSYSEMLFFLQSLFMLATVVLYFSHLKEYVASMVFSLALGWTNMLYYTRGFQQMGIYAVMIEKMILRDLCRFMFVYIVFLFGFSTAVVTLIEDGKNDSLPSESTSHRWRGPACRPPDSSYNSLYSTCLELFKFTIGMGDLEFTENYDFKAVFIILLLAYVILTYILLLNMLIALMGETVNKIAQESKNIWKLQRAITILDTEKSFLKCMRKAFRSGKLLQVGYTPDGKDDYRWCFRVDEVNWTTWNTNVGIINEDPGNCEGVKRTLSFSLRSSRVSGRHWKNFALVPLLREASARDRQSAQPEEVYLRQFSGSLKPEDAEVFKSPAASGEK

CC(=O)Nc1nc2c(Oc3cc(-c4ccc(C(F)(F)F)cc4)ncn3)cccc2s1 [AMG 517]
body temperature [1]: increased body temperature

Nc1ncnc2c1ncn2[C@@H]1O[C@H](CO)[C@@H](O)[C@H]1O [Adenosine, adenosine]
Hot After 1 use Mean [2]: 4 | Ice After 1 use Mean [2]: 6,8 | Before Hot Mean [2]: 7,3 | Before Ice Mean [2]: 7 | Hot After 1 use ([2]; listed as 4): 5 and 6 and 4 (2×) and 2 and 3 | Ice After 1 use ([2]; listed as 4): 8 and 9 and 6 (2×) and 5 and 7 | Before Hot ([2]; listed as 4): 8 and 9 (2×) and 7 and 6 and 5 | Before Ice ([2]; listed as 4): 8 (2×) and 7 (2×) and 6 (2×) | Modifications in HS after the product application, Hot After 1 use, % [2]: 45.2% | Modifications in HS after the product application, Ice After 1 use, % [2]: 2.8%

O=c1c(O)c(-c2ccccc2)oc2cc(O)cc(O)c12 [Galangin, galangin]
solubility in water [3]: practically insoluble in water | bioavailability [4]: extremely low bioavailability | Hot After 1 use Mean [2]: 4,6 | Ice After 1 use Mean [2]: 2,5 | Before Hot Mean [2]: 5,2 | Before Ice Mean [2]: 5,8 | Hot After 1 use ([2]; listed as 3): 4 and 6 and 3 and 5 (3×) | Ice After 1 use ([2]; listed as 3): 3 (2×) and 2 (2×) and 4 and 1 | Before Hot ([2]; listed as 3): 3 and 6 (2×) and 4 and 7 and 5 | Before Ice ([2]; listed as 3): 6 (3×) and 5 (2×) and 7 | Modifications in HS after the product application, Hot After 1 use, % [2]: 11.5% | Modifications in HS after the product application, Ice After 1 use, % [2]: 56,9% | metabolic oxidation [5]: prone to rapid metabolic oxidation

Cc1cc(N2CCCCC2)nc2ccccc12 [ML204]
response to cold and pain ([6]; TRPC5 blockers): effectively eliminated any response to cold and prevented pain

CCCCCCCC/C=C\CCCCCCCC(=O)O [Oleic acid, oleic acid]
Hot After 1 use Mean [2]: 4,3 | Ice After 1 use Mean [2]: 5,2 | Before Hot Mean [2]: 6,8 | Before Ice Mean [2]: 7,2 | Hot After 1 use ([2]; listed as 5): 3 and 5 and 4 (3×) and 6 | Ice After 1 use ([2]; listed as 5): 8 and 4 (2×) and 6 (2×) and 3 | Before Hot ([2]; listed as 5): 5 and 9 and 6 (2×) and 8 and 7 | Before Ice ([2]; listed as 5): 9 and 8 (2×) and 5 and 7 and 6 | Modifications in HS after the product application, Hot After 1 use, % [2]: 36.8% | Modifications in HS after the product application, Ice After 1 use, % [2]: 27.8%

O=[N+]([O-])[O-].[K+] [Potassium nitrate]
Hot After 1 use Mean [2]: 6 | Ice After 1 use Mean [2]: 5,7 | Before Hot Mean [2]: 6,7 | Before Ice Mean [2]: 7,6 | Hot After 1 use ([2]; listed as 1): 5 (2×) and 4 and 7 (2×) and 8 | Ice After 1 use ([2]; listed as 1): 5 (2×) and 4 and 7 (2×) and 6 | Before Hot ([2]; listed as 1): 5 (2×) and 6 and 8 (3×) | Before Ice ([2]; listed as 1): 7 and 8 (3×) and 6 and 9 | Modifications in HS after the product application, Hot After 1 use, % [2]: 10.4% | Modifications in HS after the product application, Ice After 1 use, % [2]: 25%

O=c1c(O)c(-c2ccc(O)cc2)oc2cc(O)cc(O)c12 [kaempferol]
impact on TRPC5 receptors [7]: either does not affect TRPC5 receptors, or shows a significantly milder impact than that of galangin

Nc1nc2ccc(OC(F)(F)F)cc2s1 [ruizole]
jaw sensitivity ([6]; agonist of TRPC5 channel): increased jaw sensitivity
